Literature values in patent publication US12539302B2, “Methods and compositions for the treatment of hair loss” (Aneira Pharma, Inc., priority 2019, dated 2026).
Where two headings read alike, the source gives them in different places. Values belong to the molecule of their own block, whether it stands above or below them.

Legend:
[1] = target: T1, human FP receptors (Homo sapiens, UniProt P43088); conditions: FP receptor agonist
[2] = target: T1, human FP receptors
[3] = system: hair growth; conditions: McCarey et al. 2004
[4] = system: elevated intraocular pressure model of glaucoma; conditions: Gagliuso et al. 2004
[5] = system: elevated intraocular pressure; conditions: patients non-responsive to latanoprost, Gandolfi 2003
[6] = system: dihydrotestosterone (DHT) production; conditions: oral; including prostate gland and scalp
[7] = propylene glycol, methanol, ethanol and 2-propanol
[8] = system: hair growth

T1 sequence (P43088 whole entry): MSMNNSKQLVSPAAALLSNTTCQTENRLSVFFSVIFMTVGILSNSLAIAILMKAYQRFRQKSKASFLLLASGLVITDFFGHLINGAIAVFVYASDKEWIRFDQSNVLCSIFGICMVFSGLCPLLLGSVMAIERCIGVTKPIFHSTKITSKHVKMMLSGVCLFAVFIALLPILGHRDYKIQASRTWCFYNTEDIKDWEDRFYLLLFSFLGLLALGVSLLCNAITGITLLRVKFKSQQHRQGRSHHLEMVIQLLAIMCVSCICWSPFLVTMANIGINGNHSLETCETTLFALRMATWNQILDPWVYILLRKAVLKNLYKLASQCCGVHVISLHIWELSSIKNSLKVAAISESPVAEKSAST

potency relative to PGF2α [1]: twice the potency | potency as FP receptor ligand relative to latanoprost [2]: two-hundred times more potent
Compound: O=C(O)CCC/C=C\C[C@@H]1[C@@H](CC[C@@H](O)CCc2ccccc2)[C@H](O)C[C@@H]1O [Latanoprost free acid, Latanoprost acid]

Compound: CCCCCCCC(=O)CC[C@@H]1[C@@H](C/C=C\CCCC(=O)OC(C)C)[C@@H](O)C[C@H]1O [Uenoprostone isopropyl ester, Unoprostone isopropyl ester]
hair growth [3]: cause no hair growth

Compound: CCNC(=O)CCC/C=C\C[C@@H]1[C@@H](/C=C/[C@@H](O)CCc2ccccc2)[C@H](O)C[C@@H]1O [bimatoprost, Bimatoprost]
effect on elevated intraocular pressure in combination [4]: additive to that of latanoprost | response in reducing elevated intraocular pressure [5]: responsive

Compound: CC(C)(C)NC(=O)[C@H]1CC[C@H]2[C@@H]3CC[C@H]4NC(=O)C=C[C@]4(C)[C@H]3CC[C@]12C [finasteride, (1S,3aS,3bS,5aR,9aR,9bS,11aS)-N-tert-butyl-9a,11a-dimethyl-7-oxo-1,2,3,3a,3b,4,5,5a,6,9b,10,11-dodecahydroindeno[5,4-f]quinoline-1-carboxamide]
decrease of DHT production [6]: about 70%

solubility, highest concentration that can be used [7]: ≥ 5% | time stable (acidic or basic aqueous solutions): no more than 48 hours | time stable (neutral aqueous solutions, room temperature): stable for up to one month
Compound: CC(C)OC(=O)CCC/C=C\C[C@@H]1[C@@H](CC[C@@H](O)CCc2ccccc2)[C@H](O)C[C@@H]1O [latanoprost, Latanoprost]

Compound: Nc1cc(N2CCCCC2)nc(N)[n+]1OS(=O)(=O)[O-] [minoxidil sulphate]
potency as hair growth agent compared to minoxidil [8]: much more potent

Compound: CCCCCCCC(=O)CC[C@@H]1[C@@H](C/C=C\CCCC(=O)O)[C@@H](O)C[C@H]1O [uenoprostone free acid]
hair growth [3]: cause no hair growth
